Reference: patent publication US20260015350A1, “AZAQUINAZOLINE PAN-KRAS INHIBITORS” (Mirati Therapeutics, Inc., priority 2022, published 2026)

Experiments:
[1] = test system: KRas-mediated phosphorylation of ERK in H727 cells; assay: Inhibition of KRas-mediated phosphorylation of ERK (Cisbio HTRF pERK), H727 cells; assay type: cell-based; conditions: for IC50: HTRF pERK; for inhibition at 0.1 µM: NCI-H727, 3 h
Method in brief: (§1)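 Compound treatment lasts 3 hrs on 6,000 seeded cells, testing 10 doses from a 10 uM top concentration in 3-fold decrements at 0.8% final DMSO. Trametinib at 0.2 uM defines the Min signal. Detection is HTRF on cold-lysed cell extracts.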

[2] = test system: KRas-mediated phosphorylation of ERK in AsPC-1 cells; assay: Inhibition of KRas-mediated phosphorylation of ERK (Cisbio HTRF pERK), AsPC-1 cells; assay type: cell-based; conditions: for IC50: HTRF pERK; for inhibition at 0.1 µM: ASPC1, 3 h
Method in brief: as §1

[3] = test system: KRas-mediated phosphorylation of ERK in PSN1 cells; assay: Inhibition of KRas-mediated phosphorylation of ERK (Cisbio HTRF pERK), PSN1 cells; assay type: cell-based; conditions: Homo sapiens
Method in brief: (§2)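 Seeding density was 6,000 cells/well; medium RPMI, 10% FBS. Read-out by homogeneous time-resolved fluorescence (pERK) after 4 hours covered at room temperature.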

[4] = test system: KRas-mediated phosphorylation of ERK in HCT116 cells; assay: Inhibition of KRas-mediated phosphorylation of ERK (Cisbio HTRF pERK), HCT116 cells; assay type: cell-based; conditions: for IC50 / inhibition at 0.1 µM: Homo sapiens; for IC50: HCT-116, HTRF pERK; for inhibition at 0.1 µM: HCT-116, 3 h
Method in brief: (§3)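 Cells were seeded at 6,000 per well and treated for 3 hrs with compound in a 10-dose, 3-fold series from 10 uM (0.8% final DMSO), with 0.2 uM Trametinib as Min control. Lysates made at 4° C over 40 mins were incubated 2 hrs at room temperature with d2- and Cryptate-labelled antibodies, then read by HTRF.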

[5] = test system: KRas-mediated phosphorylation of ERK in H358 cells; assay: Inhibition of KRas-mediated phosphorylation of ERK (Cisbio HTRF pERK), H358 cells; assay type: cell-based; conditions: for IC50 / inhibition at 0.1 µM: Homo sapiens; for IC50: NCI-H358, HTRF pERK; for inhibition at 0.1 µM: NCI-H358, 3 h
Method in brief: as §1

[6] = test system: KRas-mediated phosphorylation of ERK in A549 cells; assay: Inhibition of KRas-mediated phosphorylation of ERK (Cisbio HTRF pERK), A549 cells; assay type: cell-based; conditions: for IC50 / inhibition at 0.1 µM: Homo sapiens; for IC50: HTRF pERK; for inhibition at 0.1 µM: A549, 3 h
Method in brief: as §3

KRas^G12D = molecular target: T1, KRas^G12D (Homo sapiens, UniProt P01116, G12D); assay: KRas binding assay (TR-FRET tracer displacement), KRas G12D
T1 construct: Biotinylated KRas (corresponding to amino acids 1-169, produced at Accelegan Inc.); biotin (biotinylated); purchased Accelegan Inc

KRas^G12R = molecular target: T2, KRas^G12R (Homo sapiens, UniProt P01116, G12R); assay: KRas binding assay (TR-FRET tracer displacement), KRas G12R
T2 construct: Biotinylated KRas (corresponding to amino acids 1-169, produced at Accelegan Inc.); biotin (biotinylated); purchased Accelegan Inc

[7] = test system: KRas-mediated phosphorylation of ERK in H460 cells; assay: Inhibition of KRas-mediated phosphorylation of ERK (Cisbio HTRF pERK), H460 cells; assay type: cell-based; conditions: for IC50 / inhibition at 0.1 µM: Homo sapiens; for IC50: NCI-H460, HTRF pERK; for inhibition at 0.1 µM: NCI-H460, 3 h
Method in brief: as §1

[8] = test system: KRas-mediated phosphorylation of ERK in MKN1 cells; assay: Inhibition of KRas-mediated phosphorylation of ERK (Cisbio HTRF pERK), MKN1 cells; assay type: cell-based; conditions: Homo sapiens, MKN-1
Method in brief: as §2

KRas^G12V = molecular target: T3, KRas^G12V (Homo sapiens, UniProt P01116, G12V); assay: KRas binding assay (TR-FRET tracer displacement), KRas G12V
T3 construct: Biotinylated KRas (corresponding to amino acids 1-169, produced at Accelegan Inc.); biotin (biotinylated); purchased Accelegan Inc

[9] = Homo sapiens, NCI-H727, H727 cells
[10] = Homo sapiens, ASPC1, AsPC-1 cells
[11] = single point, 100 nM compound, 3 hrs, 0.1 µM
[12] = single point, 100 nM compound, 3 hrs
[13] = Homo sapiens, single point, 100 nM compound, 3 hrs, H727 cells
[14] = Homo sapiens, single point, 100 nM compound, 3 hrs, AsPC-1 cells

T3 sequence (P01116 1-169 isoform P01116-2 G12V): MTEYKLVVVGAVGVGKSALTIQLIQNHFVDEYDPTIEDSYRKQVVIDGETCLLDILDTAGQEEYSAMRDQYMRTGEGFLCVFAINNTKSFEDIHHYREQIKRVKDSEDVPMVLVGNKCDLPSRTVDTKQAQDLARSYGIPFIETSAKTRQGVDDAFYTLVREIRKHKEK
T1 sequence (P01116 1-169 isoform P01116-2 G12D): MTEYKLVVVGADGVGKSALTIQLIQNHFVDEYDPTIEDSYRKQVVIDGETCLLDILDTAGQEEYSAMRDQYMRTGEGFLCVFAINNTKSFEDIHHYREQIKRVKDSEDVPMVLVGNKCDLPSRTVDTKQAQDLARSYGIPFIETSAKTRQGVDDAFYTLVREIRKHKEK
T2 sequence (P01116 1-169 isoform P01116-2 G12R): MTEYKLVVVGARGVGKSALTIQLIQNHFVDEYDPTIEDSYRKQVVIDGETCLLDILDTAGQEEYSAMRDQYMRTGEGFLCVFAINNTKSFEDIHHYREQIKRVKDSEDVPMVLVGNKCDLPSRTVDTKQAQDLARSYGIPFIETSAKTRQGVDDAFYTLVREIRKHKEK

Row | IC50 [1, 9] | IC50 [2, 10] | IC50 [3] | IC50 [4] | IC50 [5] | IC50 [6] | IC50 (KRas^G12D) | IC50 (KRas^G12R) | IC50 [7] | IC50 [8] | IC50 (KRas^G12V) | Structure (SMILES) | inhibition at 0.1 µM [4, 12] | inhibition at 0.1 µM [5, 12] | inhibition at 0.1 µM [6, 12] | inhibition at 0.1 µM [7, 12] | further results
1 | > 10000 nM | > 10000 nM | > 10000 nM | > 10000 nM | 2540 nM | > 10000 nM | 5 nM | 2 nM | 7040 nM | 1240 nM | 3 nM | C[C@@H]1C[C@@H]1c1c(Cl)cc2[nH]ncc2c1-c1ncc2c(N3CCC[C@]4(C3)NC(=O)NC4=O)nc(OCC34CCCN3CCC4)nc2c1F (atropisomer, axis not shown) [Example 887, (R)-7-(7-((R)-6-chloro-5-((1S,2R)-2-methylcyclopropyl)-1H-indazol-4-yl)-8-fluoro-2-((tetrahydro-1H-pyrrolizin-7a(5H)-yl)methoxy)pyrido[4,3-d]pyrimidin-4-yl)-1,3,7-triazaspiro[4.5]decane-2,4-dione] | – | – | – | – | –
2 | 196 nM | 121 nM | 6220 nM | 247 nM | – | – | < 2 nM | < 2 nM | 109 nM | 21 nM | < 2 nM | CCc1c(F)ccc2cc(O)cc(-c3ncc4c(N5CCCC6(CNC(=O)N6)C5)nc(OC[C@]56CCCN5[C@H](COC(=O)N(C)C)CC6)nc4c3F)c12 (stereo partly drawn) [Example 711, ((3S,7aR)-7a-(((7-(8-ethyl-7-fluoro-3-hydroxynaphthalen-1-yl)-8-fluoro-4-(2-oxo-1,3,7-triazaspiro[4.5]decan-7-yl)pyrido[4,3-d]pyrimidin-2-yl)oxy)methyl)hexahydro-1H-pyrrolizin-3-yl)methyl dimethylcarbamate] | – | 78% | 43% | – | –
3 | 153 nM | 97 nM | 3620 nM | – | – | 344 nM | 4 nM | 4 nM | – | 43 nM | 2 nM | CCc1c(F)ccc2cc(O)cc(-c3ncc4c(N5CCCC6(CC(=O)N6)C5)nc(OC[C@]56CCCN5[C@H](COC(=O)N(C)C)CC6)nc4c3F)c12 (stereo partly drawn) [Example 715, ((3S,7aR)-7a-(((7-(8-ethyl-7-fluoro-3-hydroxynaphthalen-1-yl)-8-fluoro-4-(2-oxo-1,6-diazaspiro[3.5]nonan-6-yl)pyrido[4,3-d]pyrimidin-2-yl)oxy)methyl)hexahydro-1H-pyrrolizin-3-yl)methyl dimethylcarbamate] | 8% | – | – | 42% | –
4 | 47 nM | 19 nM | 1760 nM | – | – | – | < 2 nM | < 2 nM | – | 6 nM | < 2 nM | CCc1c(F)ccc2cc(O)cc(-c3ncc4c(N5CCC[C@@](C)(O)C5)nc(OC[C@]56CCCN5[C@H](CNS(=O)(=O)N(C)C)CC6)nc4c3F)c12 [Example 720, N,N-dimethyl-(((3S,7aR)-7a-(((7-(8-ethyl-7-fluoro-3-hydroxynaphthalen-1-yl)-8-fluoro-4-((R)-3-hydroxy-3-methylpiperidin-1-yl)pyrido[4,3-d]pyrimidin-2-yl)oxy)methyl)hexahydro-1H-pyrrolizin-3-yl)methyl)aminosulfonamide] | 51% | 85% | 64% | 80% | inhibition at 0.1 µM [1, 13]: 43%; inhibition at 0.1 µM [2, 14]: 70%
5 | 83 nM | 69 nM | 3080 nM | – | – | – | < 2 nM | 2 nM | – | 14 nM | < 2 nM | C#Cc1c(F)ccc2cc(O)cc(-c3ncc4c(N5CCC[C@@](C)(O)C5)nc(OC[C@]56CCCN5[C@H](COC(=O)N(C)C)CC6)nc4c3F)c12 [Example 753, ((3S,7aR)-7a-(((7-(8-ethynyl-7-fluoro-3-hydroxynaphthalen-1-yl)-8-fluoro-4-((R)-3-hydroxy-3-methylpiperidin-1-yl)pyrido[4,3-d]pyrimidin-2-yl)oxy)methyl)hexahydro-1H-pyrrolizin-3-yl)methyl dimethylcarbamate] | 23% | 76% | 2% | 42% | –
6 | 240 nM | 213 nM | > 10000 nM | 504 nM | 82 nM | 136 nM | – | – | 96 nM | 3 nM | – | CCc1c(F)ccc2cc(O)cc(-c3ncc4c(N5CCCCC5)nc(OC[C@@]56CCCN5C[C@H](F)C6)nc4c3F)c12 [Example 900, 5-ethyl-6-fluoro-4-(8-fluoro-2-(((2R,7aS)-2-fluorotetrahydro-1H-pyrrolizin-7a(5H)-yl)methoxy)-4-(piperidin-1-yl)pyrido[4,3-d]pyrimidin-7-yl)naphthalen-2-ol] | – | – | – | – | –

The next lines start with the compound.

Row | Structure (SMILES) | IC50 [1, 9] | IC50 [2, 10] | IC50 [3] | IC50 [4] | IC50 [5] | IC50 [6] | IC50 (KRas^G12D) | IC50 (KRas^G12R) | IC50 [7] | IC50 [8] | IC50 (KRas^G12V) | inhibition at 0.1 µM [4, 12] | inhibition at 0.1 µM [5, 12] | inhibition at 0.1 µM [6, 12] | inhibition at 0.1 µM [7, 12] | further results
7 | CCc1c(F)ccc2cc(O)cc(-c3ncc4c(N5CC6CCC(C5)C6C#N)nc(OC[C@@]56CCCN5C[C@H](F)C6)nc4c3F)c12 (single isomer, unassigned) [Example 561] | – | – | > 10000 nM | 24 nM | 3 nM | 4 nM | 7 nM | < 2 nM | 5 nM | 1 nM | < 2 nM | – | – | – | – | IC50 ([1]; H727 cells): 13 nM; Inhibition (HTRF % at 100 nM) of KRas-mediated Phosphorylation of ERK, H727 ([1]; single point, 100 nM compound, 3 hrs, H727 cells, 0.1 µM): 74%; IC50 ([2]; AsPC-1 cells): 80 nM; Inhibition (HTRF % at 100 nM) of KRas-mediated Phosphorylation of ERK, AsPC-1 ([2]; single point, 100 nM compound, 3 hrs, AsPC-1 cells, 0.1 µM): 30%; Inhibition (HTRF % at 100 nM) of KRas-mediated Phosphorylation of ERK, HCT116 [4, 11]: 63%; Inhibition (HTRF % at 100 nM) of KRas-mediated Phosphorylation of ERK, H358 [5, 11]: 99%; Inhibition (HTRF % at 100 nM) of KRas-mediated Phosphorylation of ERK, A549 [6, 11]: 103%; Inhibition (HTRF % at 100 nM) of KRas-mediated Phosphorylation of ERK, H460 [7, 11]: 99%
8 | CCc1c(F)ccc2cc(O)cc(-c3ncc4c(N5C[C@H]6C[C@@H](C5)C(O)C6O)nc(OC[C@@]56CCCN5C[C@H](F)C6)nc4c3F)c12 (single isomer, unassigned) [Example 570] | 280 nM | 1770 nM | > 10000 nM | – | – | 542 nM | 12 nM | < 2 nM | – | 56 nM | 3 nM | 26% | 69% | 26% | 38% | –
9 | CCc1c(F)ccc2cc(O)cc(-c3ncc4c(N5CCC(C#N)CC5)nc(OC[C@@]56CCCN5C[C@H](F)C6)nc4c3F)c12 [Example 544, 1-(7-(8-ethyl-7-fluoro-3-hydroxynaphthalen-1-yl)-8-fluoro-2-(((2R,7aS)-2-fluorohexahydro-1H-pyrrolizin-7a-yl)methoxy)pyrido[4,3-d]pyrimidin-4-yl)piperidine-4-carbonitrile] | 79 nM | 455 nM | > 10000 nM | – | – | – | 22 nM | 4 nM | – | 25 nM | 3 nM | 5% | 67% | 59% | 46% | inhibition at 0.1 µM [1, 13]: 30%; inhibition at 0.1 µM [2, 14]: -13%
10 | CCc1c(F)ccc2cc(O)cc(-c3ncc4c(NCc5cc(C(=O)N(C)C)n(C(F)F)n5)nc(OC[C@@]56CCCN5C[C@H](F)C6)nc4c3F)c12 [Example 662, 1-(difluoromethyl)-3-(((7-(8-ethyl-7-fluoro-3-hydroxynaphthalen-1-yl)-8-fluoro-2-(((2R,7aS)-2-fluorohexahydro-1H-pyrrolizin-7a-yl)methoxy)pyrido[4,3-d]pyrimidin-4-yl)amino)methyl)-N,N-dimethyl-1H-pyrazole-5-carboxamide] | 274 nM | 837 nM | > 10000 nM | – | – | – | 3 nM | 3 nM | – | 57 nM | < 2 nM | – | 22% | 22% | – | –
